Source: patent US11964971B2, “Methods and compositions for modulating splicing” (Skyhawk Therapeutics, Inc., priority 2019, dated 2024)
Like-named read-outs stand apart in the source and are kept apart here.

Tests used:
[1] = system: MDR1-MDCK cell monolayers; details: dog, MDCK-MDR1, 120 min, 5 μM, pH 7.4
SMN FL and SMN Δ7 = experiment: Quantitative splicing assay (SMN) in SMA patient fibroblasts (GM03813); format: cell-based; details: Homo sapiens, Fibroblast, read-out: SMN2 Splicing FL EC50 (nM)*
Experimental: Spinal muscular atrophy (SMA) patient fibroblasts (GM03813, Coriell) are plated in 96-well plates at 50,000 cells/well. […] Treated cells are lysed and cDNA synthesized using the Fast Advanced Cells-to-Ct kit (Thermofisher A35378) according to the manufacturer's instructions. 2 μL of each cDNA are used in qPCR reactions. […] Reactions are run in a Quant Studio 6 qPCR instrument with default settings.

MDR1 = experiment: in vitro; details: dog; for Papp A→B at 120 min, 5 μM: MDCK-MDR1, pH 7.4, MDCK-MDR1: Papp A-B (10^−6, cm/s); for Papp B→A at 120 min, 5 μM: MDCK-MDR1, pH 7.4, MDCK-MDR1: Papp B-A (10^−6, cm/s)
MDR1 (P-gp) = experiment: MDCK-MDR1 permeability assay, blood-brain-barrier penetration potential; details: dog, MDCK-MDR1, pH 7.4, MDCK-MDR1 Efflux Ratio
SMN protein = SMN protein assay (MSD) in SMA patient fibroblasts (GM03813); format: cell-based, human
Outline: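 Absolute SMN protein measured by Mesoscale Discovery assay in lysates, calibrated per plate with SMN standards (1–19.5 μg/ml). Cells: GM03813 SMA fibroblasts, 7000/well, 48 h compound exposure at doses of 2.5 μM down to 0.6 nM.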

Row | SMILES | MDCK-MDR1: % Recov A-B (%) [1] [%] | MDCK-MDR1: % Recov B-A (%) [1] [%] | EC50 (SMN FL and SMN Δ7; class symbol) [nM] | Papp A→B at 120 min, 5 μM (MDR1) [×10⁻⁶ cm/s] | Papp B→A at 120 min, 5 μM (MDR1) [×10⁻⁶ cm/s] | efflux ratio at 120 min, 5 μM (MDR1 (P-gp)) | EC50 (SMN protein) [nM] | EC50 (SMN FL and SMN Δ7; given as number) [nM]
1 | CN(c1cnc(-c2ccc(-c3cnn(C)c3)cc2O)cn1)[C@@H]1C[C@H]2CCC(N2)[C@@H]1F (single isomer, unassigned) [Compound 3E1] | 56 | 66 | 101 to 500 | 8.42 | 22 | 3 | 16 to 50 | 
2 | CN(c1cnc(-c2ccc(-c3cnn(C)c3)cc2O)cn1)[C@H]1CC2CC[C@@H](N2)[C@H]1F (single isomer, unassigned) [Compound 3E2] | 53 | 68 | 101 to 500 | 9.7 | 27.1 | 3 | 16 to 50 | 
3 | CN(c1cnc(-c2ccc(-c3ccn(C)c(=O)c3)cc2O)cn1)[C@H]1CC2CCC[C@@H](N2)[C@H]1F (single isomer, unassigned) [Compound 5E2] | 78 | 82 | 101 to 500 | 1.96 | 43 | 22 | 16 to 50 | 
4 | CN(c1cnc(-c2ccc(-c3cn[nH]c3)cc2O)cn1)[C@H]1CC2CCC[C@@H](N2)[C@H]1F (single isomer, unassigned) [Compound 6E2] | 70 | 58 | 16 to 50 | 3.67 | 22.2 | 6 | 0.01 to 15 | 
5 | CN(C)C(=O)c1cc2cc(O)c(-c3cnc(N(C)[C@@H]4C[C@H]5CCC(N5)[C@@H]4F)cn3)cc2o1 (single isomer, unassigned) [Compound 7E1] | 91 | 88 | 501 to 10000 | 1.78 | 42.4 | 24 | 501 to 10000 | 
6 | CN(C)C(=O)c1cc2cc(O)c(-c3cnc(N(C)[C@H]4CC5CC[C@@H](N5)[C@H]4F)cn3)cc2o1 (single isomer, unassigned) [Compound 7E2] | 90 | 93 | 501 to 10000 | 1.92 | 59.9 | 31 | 501 to 10000 | 
7 | CN(c1cnc(-c2cc(F)c(-c3ccn(C)c(=O)c3)cc2O)cn1)[C@H]1C[C@@H]2CCCC(N2)[C@H]1F (single isomer, unassigned) [Compound 12E2] | 72 | 88 | 501 to 10000 | 2.14 | 57.4 | 27 | 16 to 50 | 
8 | CN(c1cnc(-c2cc(F)c(-c3ccn(C)c(=O)c3)cc2O)cn1)[C@H]1C[C@@H]2CCC(N2)[C@H]1F (single isomer, unassigned) [Compound 13E2] | 80 | 87 |  | 1.97 | 40.8 | 21 | 0.01 to 15 | 398
9 | CN(c1cnc(-c2ccc(-c3cn[nH]c3)cc2O)cn1)[C@@H]1C[C@@]2(C)CC[C@H](N2)[C@@H]1F [Compound 28E4, 2-(5-(((1R,3R,4S,5S)-4-fluoro-1-methyl-8-azabicyclo[3.2.1]octan-3-yl)(methyl)amino)pyrazin-2-yl)-5-(1H-pyrazol-4-yl)phenol] | 68 | 84 |  | 4.42 | 48.4 | 11 | 501 to 10000 | 
10 | CN(c1cnc(-c2cc(F)c(-c3ccn(CF)c(=O)c3)cc2O)cn1)[C@@H]1C[C@H]2CC[C@H](N2)[C@@H]1F [Compound 32E1, 4-(2-fluoro-4-(5-(((1S,2S,3R,5R)-2-fluoro-8-azabicyclo[3.2.1]octan-3-yl)(methyl)amino)pyrazin-2-yl)-5-hydroxyphenyl)-1-(fluoromethyl)pyridin-2(1H)-one] | 101 | 92 |  | 3.13 | 58.7 | 19 | 501 to 10000 | 
11 | Cn1cc(-c2cc(O)c(-c3cnc(N(C4CC4)[C@@H]4C[C@H]5CC[C@H](N5)[C@@H]4F)cn3)cc2F)cn1 [Compound 35E1, 2-(5-(cyclopropyl((1S,2S,3R,5R)-2-fluoro-8-azabicyclo[3.2.1]octan-3-yl)amino)pyrazin-2-yl)-4-fluoro-5-(1-methyl-1H-pyrazol-4-yl)phenol] | 36 | 62 |  | 3 | 17.9 | 6 | 501 to 10000 | 
12 | CN(c1cnc(-c2cc(F)c(-c3cnn(C)c3)cc2O)cn1)[C@@H]1C[C@@]2(C)CC[C@](C)(N2)[C@@H]1F [Compound 58E1, 4-fluoro-2-(5-(((1S,2R,3R,5R)-2-fluoro-1,5-dimethyl-8-azabicyclo[3.2.1]octan-3-yl)(methyl)amino)pyrazin-2-yl)-5-(1-methyl-1H-pyrazol-4-yl)phenol] | 37 | 64 |  | 7.67 | 22.1 | 3 | 101 to 500 | 
13 | CNC(=O)/C=C/c1cc(O)c(-c2cnc(N(C)[C@@H]3C[C@@]4(C)CC[C@](C)(N4)[C@@H]3F)cn2)cc1F [Compound 61E1, (E)-3-(2-fluoro-4-(5-(((1S,2R,3R,5R)-2-fluoro-1,5-dimethyl-8-azabicyclo[3.2.1]octan-3-yl)(methyl)amino)pyrazin-2-yl)-5-hydroxyphenyl)-N-methylacrylamide] | 86 | 95 |  | 1.97 | 57.4 | 29 | 16 to 50 | 
14 | Cn1cc(-c2ccc(-c3cnc(N(C4CC4)[C@@H]4C[C@@]5(C)CC[C@](C)(N5)[C@@H]4F)cn3)c(O)c2)cn1 [Compound 75E1, 2-(5-(cyclopropyl((1S,2R,3R,5R)-2-fluoro-1,5-dimethyl-8-azabicyclo[3.2.1]octan-3-yl)amino)pyrazin-2-yl)-5-(1-methyl-1H-pyrazol-4-yl)phenol] | 40 | 70 |  | 2.11 | 16.1 | 8 | 501 to 10000 | 
15 | Cn1cc(-c2ccc(-c3cnc(N(C4CC4)[C@H]4C[C@]5(C)CC[C@@](C)(N5)[C@H]4F)cn3)c(O)c2)cn1 [Compound 75E2, 2-(5-(cyclopropyl((1R,2S,3S,5S)-2-fluoro-1,5-dimethyl-8-azabicyclo[3.2.1]octan-3-yl)amino)pyrazin-2-yl)-5-(1-methyl-1H-pyrazol-4-yl)phenol] | 38 | 66 |  | 2.39 | 16.9 | 7 | 101 to 500 | 
16 | CNC(=O)/C=C/c1cc(O)c(-c2cnc(N(C3CC3)[C@@H]3C[C@@]4(C)CC[C@](C)(N4)[C@@H]3F)cn2)cc1F [Compound 79E1, (E)-3-(4-(5-(cyclopropyl((1S,2R,3R,5R)-2-fluoro-1,5-dimethyl-8-azabicyclo[3.2.1]octan-3-yl)amino)pyrazin-2-yl)-2-fluoro-5-hydroxyphenyl)-N-methylacrylamide] | 84 | 88 |  | 1.67 | 45.3 | 27 | 501 to 10000 | 
